ChEMBL document CHEMBL3525940, “The tissue-specific toxicity of methimazole in the mouse olfactory mucosa is partly mediated through target-tissue metabolic activation by CYP2A5” (Drug Metab Dispos, 2011)

Assays:
[1] = system: Mus musculus; experiment: Toxicity in wild-type B6 mouse olfactory mucosa assessed as depletion of nonprotein sulfhydryl at 50 mg/kg, ip at 2 hrs relative to vehicle treated control; type: organism-based; design: dose 50 mg/kg, route intraperitoneal; details: in vivo
[2] = system: Mus musculus; experiment: Toxicity in wild-type mouse olfactory mucosa assessed as epithelium loss at 50 mg/kg, ip by hematoxylin/eosin staining; type: organism-based; design: dose 50 mg/kg, route intraperitoneal; details: in vivo
[3] = system: Mus musculus; experiment: Toxicity in wild-type littermates mouse olfactory mucosa assessed as epithelium loss measured as intact olfactory epithelium at 50 mg/kg, ip by hematoxylin/eosin staining; type: organism-based; design: dose 50 mg/kg, route intraperitoneal; details: in vivo
[4] = system: Mus musculus; experiment: Toxicity in Cyp2a5-null B6 mouse olfactory mucosa assessed as attached epithelium from basement membrane at 50 mg/kg, ip by hematoxylin/eosin staining; type: organism-based; design: dose 50 mg/kg, route intraperitoneal; details: in vivo
[5] = system: Mus musculus; experiment: Toxicity in Cyp2a5-null B6 mouse olfactory mucosa assessed as epithelium loss measured as intact olfactory epithelium at 50 mg/kg, ip by hematoxylin/eosin staining; type: organism-based; design: dose 50 mg/kg, route intraperitoneal; details: in vivo
[6] = Drug metabolism in wild-type mouse olfactory mucosa microsomes assessed as rate of disappearance of compound at 5 uM after 15 mins; type: ADME; details: read-out: Drug metabolism
[7] = system: Mus musculus; experiment: Toxicity in wild-type B6 mouse olfactory mucosa assessed as epithelium loss measured as intact olfactory epithelium at 50 mg/kg, ip by hematoxylin/eosin staining; type: organism-based; design: dose 50 mg/kg, route intraperitoneal; details: in vivo
[8] = system: Mus musculus; experiment: Toxicity in Cyp2a5-null B6 mouse olfactory mucosa assessed as depletion of nonprotein sulfhydryl at 50 mg/kg, ip at 2 hrs relative to vehicle treated control; type: organism-based; design: dose 50 mg/kg, route intraperitoneal; details: in vivo
[9] = system: Mus musculus; experiment: Toxicity in wild-type mouse olfactory mucosa assessed as abnormal nasal cavity and epithelium at 50 mg/kg, ip by hematoxylin/eosin staining; type: organism-based; design: dose 50 mg/kg, route intraperitoneal; details: in vivo
[10] = system: Mus musculus; experiment: Toxicity in wild-type mouse olfactory mucosa assessed as detached epithelium from basement membrane, fractured and disorganized at 50 mg/kg, ip by hematoxylin/eosin staining; type: organism-based; design: dose 50 mg/kg, route intraperitoneal; details: in vivo
[11] = system: Mus musculus; experiment: Toxicity in Cyp2a5-null B6 mouse olfactory mucosa assessed as abnormal nasal cavity and epithelium at 50 mg/kg, ip by hematoxylin/eosin staining; type: organism-based; design: dose 50 mg/kg, route intraperitoneal; details: in vivo
[12] = Drug metabolism in Cyp2a5-null B6 mouse olfactory mucosa microsomes assessed as rate of disappearance of compound at 5 uM after 15 mins; type: ADME; details: B6 (C57BL/6), read-out: Drug metabolism

SMILES: Cn1cc[nH]c1=S [METHIMAZOLE]
- Activity [1]: 51.8%
- Activity [2]: Toxic
- Activity [3]: 39.8%
- Activity [4]: Non-toxic
- Activity [5]: 60.9%
- metabolised at 0.25 h, 5 µM [6]: 58.7%
- Activity [7]: 14.6%
- Activity [8]: 41.5%
- Activity [9]: Toxic
- Activity [10]: Toxic
- Activity [11]: Non-toxic
- metabolised at 0.25 h, 5 µM [12]: 28.7%
